Read-outs that look alike come from different tables or passages of the source.
Legend:
[1] = molecular target: T1, human growth hormone secretagogue receptor (hGHS-R1a) (Homo sapiens, UniProt Q92847); assay: Competitive radioligand binding assay (ghrelin receptor), [125I]-ghrelin displacement on GHS-R/HEK 293 membranes
T1 construct: purchased PerkinElmer BioSignal #RBHGHSM; host or cells: HEK-293, stably transfected

motilin receptor = motilin receptor (Homo sapiens, UniProt O43193); assay: Selectivity for the ghrelin receptor versus the motilin receptor; type: binding
Text: The level of agonist activity and selectivity for representative compounds of the invention are shown below in Table 4.

[2] = molecular target: T2, human ghrelin receptor (hGHS-R1a) (Homo sapiens, UniProt Q92847); assay: Aequorin functional assay (ghrelin receptor), CHO-K1 cells co-expressing Gα16 and aequorin; type: cell-based; conditions: Table 4; functional (agonist) activity; TFA salts unless otherwise noted; read-out: EC50
T2 construct: host or cells: CHO-K1 co-expressing Gα16 and mitochondrially targeted aequorin
Method: This cell line is typically constructed by transfection of the human ghrelin receptor into CHO-K1 cells co-expressing Gα16 and the mitochondrially targeted Aequorin (Ref #ES-WT-A5). • 1. […] Assay buffer: DMEM (Dulbecco's Modified Eagles Medium) containing 0.1% BSA (bovine serum albumin; pH 7.0). • 3. Coelenterazine (Molecular Probes, Leiden, The Netherlands). • Final test concentrations (N=8) for compounds of the invention: 10, 1, 0.3, 0.1, 0.03, 0.01, 0.003, 0.001 μM.
Stock solutions of compounds (10 mM in 100% DMSO) were provided frozen on dry ice and stored at −20° C. prior to use. […] Assay plates were then prepared by appropriate dilution in DMEM medium containing 0.1% BSA. Under these conditions, the maximal final DMSO concentration in the assay was <0.6%.
AequoScreen™ cells were collected from culture plates with Ca^2+ and Mg^2+-free phosphate buffered saline (PBS) supplemented with 5 mM EDTA, pelleted for 2 min at 1000×g re-suspended in DMEM—Ham's F12 containing 0.1% BSA at a density of 5×10^6 cells/mL, and incubated O/N at rt in the presence of 5 μM coelenterazine. After loading, cells were diluted with assay buffer to a concentration of 5×10^5 cells/mL.
For agonist testing, 50 μL of the cell suspension was mixed with 50 μL of the appropriate concentration of test compound or ghrelin (reference agonist) in 96-well plates (duplicate samples). Ghrelin (reference agonist) was tested at several concentrations concurrently with the test compounds in order to validate the experiment. The emission of light resulting from receptor activation in response to ghrelin or test compounds was recorded using the Hamamatsu FDSS 6000 reader (Hamamatsu Photonics K.K., Japan).
Results were expressed as Relative Light Units (RLU). […] EC50, Hill slope and % Emax values are reported.
• 1. Assay performed on CHO-K1 cells expressing the transfected, cloned human ghrelin receptor (hGHS-R1a) and Gα16. • 2. Suspended cells incubated O/N with coelenterazine. • 3. Stimulation of hGHS-R1a activates Gα16, causing […] Ca2+ release which ultimately leads to the oxidation of coelenterazine and the emission of a quantitative luminescent signal. • 4. Ghrelin was used as the positive control. • 5.

[3] = Table 3B, binding activity at the human ghrelin receptor, read-out: Ki
[4] = Table 4, TFA salts unless otherwise noted, read-out: Ki
[5] = [125I]-ghrelin displacement, GHS-R/HEK 293 membranes, class symbols, read-out: Binding Activity at the Human Ghrelin Receptor (Ki)
[6] = Binding activity at the human ghrelin receptor, [125I]-ghrelin displacement, read-out: Ki

Chain of motilin receptor (O43193 whole entry, species assumed): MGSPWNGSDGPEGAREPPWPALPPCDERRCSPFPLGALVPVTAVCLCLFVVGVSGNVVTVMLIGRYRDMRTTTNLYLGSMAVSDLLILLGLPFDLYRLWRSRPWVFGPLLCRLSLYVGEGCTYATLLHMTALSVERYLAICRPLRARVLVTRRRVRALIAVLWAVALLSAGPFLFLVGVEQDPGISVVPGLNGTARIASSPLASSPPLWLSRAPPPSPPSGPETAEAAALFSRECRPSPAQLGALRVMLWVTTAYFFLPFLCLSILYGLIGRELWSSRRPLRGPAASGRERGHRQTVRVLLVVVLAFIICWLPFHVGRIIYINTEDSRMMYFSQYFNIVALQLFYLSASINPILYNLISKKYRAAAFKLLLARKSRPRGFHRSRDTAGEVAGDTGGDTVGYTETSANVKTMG
T2 sequence (Q92847 whole entry): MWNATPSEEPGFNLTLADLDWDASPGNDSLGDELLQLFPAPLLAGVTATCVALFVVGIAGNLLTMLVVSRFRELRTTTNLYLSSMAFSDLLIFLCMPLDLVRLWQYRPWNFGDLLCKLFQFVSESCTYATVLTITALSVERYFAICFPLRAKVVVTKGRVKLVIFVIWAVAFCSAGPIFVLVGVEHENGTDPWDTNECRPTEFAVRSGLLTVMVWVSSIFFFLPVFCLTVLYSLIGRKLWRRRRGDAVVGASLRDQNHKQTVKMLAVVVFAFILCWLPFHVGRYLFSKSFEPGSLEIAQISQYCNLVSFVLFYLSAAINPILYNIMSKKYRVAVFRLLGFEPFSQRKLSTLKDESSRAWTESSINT
T1 sequence (Q92847 whole entry): as above

SMILES | Ki [1, 4] [nM] | Selectivity (motilin receptor) | EC50 [2] [nM] | other results
CC[C@H](C)[C@@H]1NCCCCCCCCNC(=O)[C@H](Cc2cccc(Cl)c2)NC(=O)C2(CCCC2)NC1=O [compound 363] | 100 to 1000 | 35/1 | – | Ki [1, 3]: 100 to 1000 nM
COc1ccc(C[C@@H]2NC(=O)C3(CCCC3)NC(=O)[C@H](CC(C)C)NCCOc3ccccc3/C=C/CNC2=O)cc1 [compound 156] | 10 to 100 | – | 1 to 100 | Ki [1, 5]: 10 to 100 nM
C[C@@H]1C(=O)N[C@H](Cc2ccc(F)cc2)C(=O)NCCCc2cc(NS(C)(=O)=O)ccc2OCCN[C@@H](C2CC2)C(=O)N1C [compound 374] | 10 to 100 | 250/1 | 1 to 100 | Ki [1, 3]: 10 to 100 nM
CCC(C)C1NCCOc2ccccc2CCCNC(=O)C(CC(C)C)NC(=O)C(C)N(C)C1=O (stereo not drawn) [compound 176] | – | 105/1 | – | –
CCC(C)[C@@H]1NC[C@@H](C)Oc2ccccc2CCCNC(=O)[C@@H](Cc2ccccc2)NC(=O)[C@@H](C)N(C)C1=O (stereo partly drawn) [compound 36] | – | – | 100 to 1000 | Ki [1, 6]: 10 to 100 nM
CC(C)C[C@@H]1NCCOc2ccccc2/C=C/CNC(=O)[C@H](Cc2cccc(Cl)c2)NC(=O)C2(CCCC2)NC1=O [compound 21] | 0.1 to 10 | 1078/1 | 1 to 100 | Ki [1, 6]: 0.1 to 10 nM
CC(C)[C@@H]1NCCOc2ccccc2CCCNC(=O)[C@@H](Cc2ccccc2)NC(=O)CN(C)C1=O [Compound 3] | 100 to 1000 | – | 100 to 1000 | Ki [1, 6]: 100 to 1000 nM
C[C@@H]1C(=O)N[C@H](Cc2c(F)c(F)c(F)c(F)c2F)C(=O)NCCCc2ccccc2OCCN[C@@H](C2CC2)C(=O)N1C [compound 318] | 0.1 to 10 | – | 1 to 100 | Ki [1, 3]: 0.1 to 10 nM
CC(C)C[C@@H]1NCCOc2ccccc2CCCNC(=O)[C@H](Cc2ccccc2)NC(=O)C2(CC2)NC1=O [compound 111] | 10 to 100 | – | 100 to 1000 | Ki [1, 6]: 100 to 1000 nM
CC[C@@H](C)[C@@H]1NCCOc2ccccc2CCCNC(=O)[C@@H](Cc2ccccc2)NC(=O)[C@@H](C)N(C)C1=O [compound 16] | – | >2000/1 | – | –
C[C@@H]1C(=O)N[C@H](Cc2ccccc2)C(=O)NCCCc2ccccc2OCCN2CCCC[C@H]2C(=O)N1C [compound 226] | 10 to 100 | – | > 1000 | Ki ([1]; Table 3E, read-out: Ki): 10 to 100 nM; Ki [1, 5]: 10 to 100 nM
C[C@@H]1C(=O)N[C@H](Cc2ccc(F)cc2)C(=O)NCC#Cc2ccccc2OCCN[C@@H](C2CC2)C(=O)N1C [compound 354] | 10 to 100 | – | 1 to 100 | Ki [1, 3]: 10 to 100 nM
CC(C)C[C@@H]1NCCOc2ccccc2/C=C/CNC(=O)[C@H](CC(C)C)NC(=O)C2(CCCC2)NC1=O [compound 47] | 100 to 1000 | – | 1 to 100 | Ki [1, 6]: 100 to 1000 nM
CC(C)C[C@@H]1NCCOc2ccccc2/C=C/CNC(=O)[C@H](Cc2ccccc2Cl)NC(=O)C2(CCCC2)NC1=O [compound 20] | – | 1044/1 | – | –
CC(C)C[C@@H]1NCCOc2ccccc2CCCNC(=O)[C@@H](Cc2ccccc2)NC(=O)C2(CCCC2)NC1=O [compound 97] | 10 to 100 | – | 100 to 1000 | Ki [1, 6]: 100 to 1000 nM
CCC(C)[C@@H]1NC[C@@H](C)Oc2ccccc2CCCNC(=O)[C@H](Cc2cccc(Cl)c2)NC(=O)C2(CCCC2)NC1=O (stereo partly drawn) [368a] | 0.1 to 10 | – | > 1000 | Ki [1, 3]: 10 to 100 nM
C[C@@H]1C(=O)N[C@H](Cc2ccc(C(F)(F)F)cc2)C(=O)NCCCc2ccccc2OCCN[C@@H](C2CC2)C(=O)N1C [compound 322] | 0.1 to 10 | – | 1 to 100 | Ki [1, 3]: 0.1 to 10 nM
CCC(C)C1NCCOc2ccccc2CCCNC(=O)C(Cc2ccccc2)NC(=O)C(C)N(C)C1=O (stereo not drawn) [compound 42] | – | 4300/1 | – | –
CCC(C)C1NCCOc2ccccc2C=CCNC(=O)C(Cc2ccccc2)NC(=O)C(C)N(C)C1=O (stereo not drawn) [compound 40] | – | >3300/1 | – | –

SMILES | Ki [1, 4] [nM] | Selectivity (motilin receptor) | EC50 [2] [nM] | other results
CCC(C)C1NCCOc2ccccc2CCCNC(=O)C(Cc2cccs2)NC(=O)C(C)N(C)C1=O (stereo not drawn) [compound 34] | – | >1000/1 | – | –
CCCC1NCCOc2ccccc2C=CCNC(=O)C(Cc2ccccc2)NC(=O)C(C)N(C)C1=O (stereo not drawn) [compound 39] | – | 3400/1 | – | –
CC1(C)NC(=O)C2(CCCC2)NCCOc2ccccc2/C=C/CNC(=O)[C@H](Cc2cccc(Cl)c2)NC1=O [compound 334] | – | 346/1 | – | –
CC1CNC(C2CC2)C(=O)N(C)C(C)C(=O)NC(Cc2ccc(F)cc2)C(=O)NCCCc2ccccc2O1 (stereo not drawn) [compound 367] | 10 to 100 | – | 1 to 100 | Ki [1, 3]: 10 to 100 nM
CCCC1NCCOc2ccccc2CCCNC(=O)C(Cc2ccccc2)NC(=O)C(C)N(C)C1=O (stereo not drawn) [Compound 4] | – | 3012/1 | – | –
CCC(C)C1NCCOc2ccccc2CCCNC(=O)C(Cc2cccc(Cl)c2)NC(=O)C(C)N(C)C1=O (stereo not drawn) [compound 24] | – | 3039/1 | – | –
CCC(C)C1NCCOc2ccccc2CCCNC(=O)C(Cc2ccccc2)NC(=O)C(C)N(CC)C1=O (stereo not drawn) [compound 43] | – | 3700/1 | – | –
C[C@@H]1C(=O)N[C@H](Cc2ccc(O)c(C(C)(C)C)c2)C(=O)NCCCc2ccccc2OCCN[C@@H](C2CC2)C(=O)N1C [compound 311] | 10 to 100 | 21/1 | – | Ki [1, 3]: 10 to 100 nM
C[C@@H]1C(=O)N[C@H](Cc2ccc(Cl)cc2)C(=O)NCCCc2ccccc2OCCN[C@@H](C2CC2)C(=O)N1C [compound 299] | 0.1 to 10 | – | 1 to 100 | Ki [1, 3]: 0.1 to 10 nM
CCC(C)C1NCCOc2ccccc2CCCNC(=O)C(Cc2ccccc2)NC(=O)C(C)N(C)C1=O (stereo not drawn) [compound 15] | – | >1700/1 | – | –
CC1COc2ccccc2CCCNC(=O)C(Cc2ccc(F)cc2)NC(=O)C(C)N(C)C(=O)C(C2CC2)N1 (stereo not drawn) [compound 394] | – | 1700/1 | – | –
CCC(C)C1NCCOc2ccccc2CCCNC(=O)C(Cc2ccccc2)NC(=O)C(C)NC1=O (stereo not drawn) [compound 2] | 100 to 1000 | – | 100 to 1000 | Ki [1, 6]: 100 to 1000 nM
CC(C)[C@@H]1NCCOc2ccccc2/C=C/CNC(=O)[C@H](Cc2ccccc2)NC(=O)C2(CCOCC2)NC1=O [compound 140] | 100 to 1000 | – | 100 to 1000 | Ki [1, 6]: 100 to 1000 nM
CC(C)C1NCCOc2ccccc2C=CCNC(=O)C(Cc2ccccc2)NC(=O)C(C)N(C)C1=O (stereo not drawn) [compound 19] | – | >1700/1 | – | –
CCC(C)C1NCCOc2ccccc2C2CC2CNC(=O)C(Cc2cccc(Cl)c2)NC(=O)C2(CCCC2)NC1=O (stereo not drawn) [compound 388] | – | 400/1 | – | –
CCC(C)[C@@H]1NC[C@@H](C)Oc2ccccc2CCCNC(=O)[C@@H](Cc2ccccc2)NC(=O)[C@@H](C)N(C)C1=O (stereo partly drawn) [compound 35] | 10 to 100 | – | 1 to 100 | Ki [1, 6]: 10 to 100 nM
CCC[C@@H]1NCCOc2ccccc2CCCNC(=O)[C@@H](Cc2ccccc2)NC(=O)CN(CC)C1=O [compound 5] | 100 to 1000 | – | 100 to 1000 | Ki [1, 6]: 100 to 1000 nM
CCC(C)C1NCCOc2ccccc2CCCNC(=O)C(Cc2ccc3ccccc3c2)NC(=O)C(C)N(C)C1=O (stereo not drawn) [compound 31] | – | 4900/1 | – | –

Source: patent US20180110824A1, “Macrocyclic Modulators of the Ghrelin Receptor” (Ocera Therapeutics, Inc., priority 2016, published 2018)
